Test results: US9040580B2, “Method for prevention or treatment of degenerative neurologial brain disorders” (B[…]., LTD., priority 2010, dated 2015)

Experiments:
[1] = established by the World Heath Organization (WHO); cited from earlier work
[2] = tested on: Parkinson's disease model (6-OHDA) C57BL/6 mouse; assay: Y-shaped maze test in Parkinson's disease model; assay type: in vivo; conditions: FIG. 9
Description: An Y-shaped maze measurement device has three extending arms to form an alphabet ‘Y’ shape wherein each arm has a length of 35 cm, height of 9 cm, and width of 5 cm, and all arms are formed at the same angle. After positioning a test animal to face an end of one of the arms of the Y-shaped maze, the animal was allowed to freely go around the arms for 8 minutes. Motions of the animal were recorded and, when the animal with hind legs moved inside the arm, the animal was deemed to pass the arm (‘arm entry’). Movement of the animal was represented by the number of crossings (‘alternation’) and one alternation is defined to be when the animal continuously passes three arms. A quantity of spontaneous crossing movement is a percentage ratio of a practical alternation and a maximum possible alternation (that is, a total alternation −2).

[3] = tested on: Parkinson's disease model (6-OHDA) C57BL/6 mouse; assay: Rotarod test in Parkinson's disease model; assay type: in vivo; conditions: FIG. 7
Description: In order to identify whether methylparaben (MP) can improve movement dysfunction of the Parkinson's disease model, a rotarod test was performed and the test results were evaluated on day 14 after the surgery of Parkinson's disease. The rotarod test refers to a test of measuring a residence time when a mouse was riding on a rotarod without falling off. A rotation speed of the rotarod was set to 10 rpm and the rotarod test was performed over 10 minutes after an adaptation time of 5 minutes. A riding time on the rotarod was repeatedly measured three times and a mean value was calculated, then, a final value was represented in the form of the mean value±mean error (n=6).

SH-SY5Y cells [4] = assay: Cell protective activity against α-synuclein, WST-1; assay type: cell-based, human; conditions: for apoptosis caused by α-synuclein: 4 h pre-culture, then 2 μM α-synuclein 24 h, FIG. 6
Description: (§1) In order to identify whether methylparaben (MP) in cultured cells has cell protective effects against active oxygen, excitatory brain neurotransmitter, and α-synuclein, a cell protective activity test was performed. These materials, that is, the active oxygen, excitatory brain neurotransmitter, and α-synuclein has been indicated as a cause of extensive damage of nerve cells with respect to Parkinson's disease and other degenerative cerebral disorders.
(§2) Each well of a 96-well plate was provided with SH-SY5Y cells (5×10^3 cells; 10% FBS added DMEM medium) derived from human nerve cancer and cultured at 37° C. for 24 hours. After this, 1, 10 and 100 ng/ml of methylparaben (MP), 50 μM Vitamin E (Vit E) or 10 μM MK-801 was added and further cultured for 4 hours. Alternatively, as a control group, a culture solution without the addition of a drug was prepared. After culturing for 4 hours, 300 mM hydrogen peroxide solution (H2O2) generating active oxygen, 2 mM glutamate as an excitatory brain neurotransmitter, and 2 μM α-synuclein were further added and cultured for 24 hours. After culturing, the cultured solution was washed using phosphate buffered saline (PBS). 100 μl cultured solution provided with a 10% cell proliferation reagent (WST-1) was poured into an incubator at 37° C. and reacted for 1 hour under […], and then, absorbance was measured at 450 nm.

SH-SY5Y cells [5] = assay: Cell protective activity against active oxygen (hydrogen peroxide), WST-1; assay type: cell-based, human; conditions: for apoptosis caused by active oxygen: 4 h pre-culture, then 300 mM H2O2 24 h, FIG. 4
Description: as §1, §2

[6] = tested on: Parkinson's disease model (6-OHDA) C57BL/6 mouse; assay: Observation of rotary movement (apomorphine-induced) in Parkinson's disease model; conditions: FIG. 8
[7] = Hydroxyl radical removal ability test (Fenton reaction, DMPO spin trap, ESR); assay type: biochemical
Description: In order to identify active oxygen removal ability of methylparaben (MP), Fenton reaction [H2O2+FeSO4] was performed to derive hydroxyl radicals. The derived hydroxyl radicals were entrapped by a nitrone spin trap (DMPO) and the entrapped DMPO-OH addition product was measured by an electron spin resonance (ESR) spectrometer. ESR spectrum was measured by reacting a reaction reagent [phosphate buffer solution (pH 7.4); 4.5 M DMPO 10 μl, 0.6 mM FeSO4 75 μl, 2.8 M H2O2 75 μl], methylparaben and vitamin C (VitC), then, using an ESR spectrometer (JES-FA, JEOL, Japan), and the measured results are shown in FIG. 2. In this regard, the ESR spectrometer carried out analysis using some parameters [magnetic field 340 mT, power 1.00 mW, frequency 9.19 GHz, amplitude modulation 0.2 mT, gain 200, scanning time 2 minutes, scanning width 10 mT, time constant 0.03 seconds, and temperature 20° C.].

[8] = tested on: Parkinson's disease model (6-OHDA) C57BL/6 mouse; assay: Passive avoidance test in Parkinson's disease model; assay type: in vivo; conditions: FIG. 10
Description: As a test device, a shuttle box having a size of 50×15×40 cm in width×length×height and being provided with an electrically conductive grid was used. The box was separated into two rooms, each having a size of 25×15 cm, by a connecting guillotine door (10×10 cm). Each room was illuminated using a 20 W light bulb. Noise was 60 dB or less and the test was performed in a room with very low illumination.
A mouse was placed in one room (A) of the two rooms separated by the door and the door was opened while turning on a light at 1500 lux. By doing this, the mouse looked around the room and entered the other room (B) without illumination. At this time, the door was operated to be automatically closed. By measuring a time taken from the opening of the door while turning on the light, to the closing of the door, a latency time was determined. The mouse may pass from room A to room B if the above process is repeated. If the mouse crossed from room A into room B within 20 seconds by repeating the above described process, a training process was deemed to be completed. […]
The mouse may develop a memory of a relation between the dark room and the foot-shock. […] After 1 day, a time taken from placing the above mouse in room A just before the mouse crossed into room B when a light turned on, was measured. […]

SH-SY5Y cells [9] = assay: Cell protective activity against excitatory brain neurotransmitter (glutamate), WST-1; assay type: cell-based, human; conditions: for apoptosis caused by excitatory brain neurotransmitter: 4 h pre-culture, then 2 mM glutamate 24 h, FIG. 5
Description: as §1, §2

[10] = 100 μg/kg i.p. everyday for 2 weeks
[11] = 200 μg/kg i.p. everyday for 2 weeks

For `CCOC(=O)c1ccc(O)cc1` [ethylparaben], the daily proper intake [1] is given as 10 mg/kg.
In the case of `COC(=O)c1ccc(O)cc1` [methylparaben], the “memory (spontaneous alternation, Y-shaped maze)” value [2, 10] is reported as “significantly improving”, the “memory (spontaneous alternation, Y-shaped maze)” value [2, 11] is reported as “significantly improving” and the “movement ability (riding time on rotarod)” value [3, 10] is reported as “significantly improving”. The “movement ability (riding time on rotarod)” value [3, 11] was “significantly improving”, the “apoptosis caused by α-synuclein” value (SH-SY5Y cells [4]; 10 ng/ml) was “significantly suppressed” and the “apoptosis caused by α-synuclein” value (SH-SY5Y cells [4]; 100 ng/ml) was “significantly suppressed”. For the same molecule, the “cell protective effect compared with positive control groups” value (SH-SY5Y cells [4]; 10 and 100 ng/ml, α-synuclein) was “substantially similar to 50 μM VitE or 10 μM MK-801”, the daily proper intake [1] was 10 mg/kg and the “apoptosis caused by active oxygen” value (SH-SY5Y cells [5]; 10 ng/ml) was “significantly suppressed”. For the same molecule, the “apoptosis caused by active oxygen” value (SH-SY5Y cells [5]; 100 ng/ml) was “significantly suppressed”, the “cell protective effect compared with positive control groups” value (SH-SY5Y cells [5]; 10 and 100 ng/ml, H2O2) was “substantially similar to 50 μM VitE or 10 μM MK-801” and the “rotary movement dysfunction (number of revolutions after apomorphine)” value [6, 10] was “significantly improving”. The “rotary movement dysfunction (number of revolutions after apomorphine)” value [6, 11] was “significantly improving”, the “amount of active oxygen (ESR, DMPO-OH)” value ([7]; adding methylparaben, Fenton reaction, pH 7.4, FIG. 2) was “reduced an amount of active oxygen” and the “active oxygen inhibitory ability compared with VitC” value ([7]; methylparaben 100 μg/ml) was “substantially similar to that of VitC”. For the same molecule, the “active oxygen inhibitory ability” value ([7]; methylparaben added, in relation to concentration, FIG. 3, n=4) was “active oxygen inhibitory ability was increased”, the “memory (latency time, passive avoidance)” value [8, 10] was “significantly improving” and the “memory (latency time, passive avoidance)” value [8, 11] was “significantly improving”. For the same molecule, the “apoptosis caused by excitatory brain neurotransmitter” value (SH-SY5Y cells [9]; 10 ng/ml) was “significantly suppressed”, the “apoptosis caused by excitatory brain neurotransmitter” value (SH-SY5Y cells [9]; 100 ng/ml) was “significantly suppressed” and the “cell protective effect compared with positive control groups” value (SH-SY5Y cells [9]; 10 and 100 ng/ml, glutamate) was “substantially similar to 50 μM VitE or 10 μM MK-801”.
